The source of these data is US20070049538A1, “METHODS FOR USING CUCURBITACIN COMPOUNDS” (SOUTH DAKOTA STATE UNIVERSITY, priority 2005, published 2007).

Broadly, the EC50 is the concentration needed to bring the measured effect to its halfway point.

Entries after “also recorded” stand apart in the source; their conditions may differ.

Test [1] deals with lipid peroxidation of microsomal suspension. Nature of the test: Microsomal Lipid Peroxidation Assay. Format: biochemical. To be noted: at 0.1 mM, both chemical and enzymatic assays. As for the experimental part:
Cucurbitacin anti-lipid peroxidation was studied by the Microsomal Lipid Peroxidation Assay (Engineer et al., Biochemical Pharmacology 38(8): 1279-1285, 1989). Lipid peroxidation of microsomal suspension was induced both enzymatically and chemically and validated on the standard compound quercetin. […] Activity of 3 cucurbitacin analogs, B, E, and E-Me-ether was monitored at 0.1 mM indicating no inhibition in either the chemical or enzymatic assay.

Test [2] deals with HSC-T6 cells. Put plainly: Serum-driven HSC-T6 proliferation, experiment 3 (24 h, proliferating cells). The settings on record: HSC-T6, 24 h, proliferating cells; read-out: Experiment 3 EC50 (A). The format is cell-based, rat.
For test [3] the following is noted: in vivo; cited from earlier work.
A short description of test [4]: ABTS*+ Radical Cation Decolorization Assay. The settings on record: at 50 μM, 100 μM and 1.8 mM, up to 2 hours. As for the experimental part: Cucurbitacin B activity was monitored at 50 μM, 100 μM, and 1.8 mM. The time interval was expanded up to 2 hours in case cucurbitacin B was reacting slowly.
Test [5] in a line: DPPH* Stable Free Radical Scavenging Assay. The settings on record: at 50 μM. On the procedure: Cucurbitacin antioxidant activity was studied first by the DPPH* Stable Free Radical Scavenging Assay (Cotelle et al., Free radical Biology & Medicine 20(1): 35-43, 1996). Experimental conditions were optimized on the standard compound ascorbic acid. Data indicated 30% activity at 50 μM concentration, and 100% activity at 100 μM for ascorbic acid. While the original assay required 10 minutes incubation time for the reaction to occur, this time was increased up to 30 minutes in case cucurbitacin were reacting slower than other reagents.
On the technique in general: Loss of DPPH colour is used to gauge radical scavenging.

A further test deals with hyaluronidase (Bos taurus, UniProt Q2YDK3). Nature of the test: Anti-Hyaluronidase Assay. The settings on record: up to 71.68 mM. Format: biochemical. The text has this:
Cucurbitacin anti-inflammatory activity was monitored by the Anti-Hyaluronidase Assay (Facino et al., Il Farmaco 48: 1447-1461, 1993 and Linker, A., Hyaluronidase. In: Methods of enzymatic analysis. Vol. 4., Bergmeyer, H. U. (Editor), Verlag Chemie GmbH, Berlin, 256-262, 1984). This assay was validated using the standard compound phenylbutazone.

Test [6] deals with HSC-T6 cells. Nature of the test: Serum-driven HSC-T6 proliferation, experiment 2 (24 h, starved/quiescent cells). The format is cell-based, rat. To be noted: HSC-T6, 24 h, starved (quiescent) cells; read-out: Experiment 2 EC50. On the procedure:
To overcome this problem, the amount of incubation time was increased to 24 h, and cucurbitacin activity measured on starved (Exp. 2) or proliferative (Exp. 3) cells (Table 8). Cells turned quiescent when serum was not supplemented for one day (Exp. 2). Activity of a few compounds was monitored on quiescent cells, and their activity compared to the ones measured on proliferating cells (Exp. 3).
We established several experimental conditions such as 4 hours of incubation time with cucurbitacin, and 2 day cell incubation with fresh media after challenging with cucurbitacin (Exp. 1). Other experiments involved addition of cucurbitacin for 24 hours over starved cells (Exp. 2) vs. proliferating cells (Exp. 3), and one day incubation of cells with fresh media after challenge. The 4 hour incubation period with cucurbitacin triggered anti-proliferation effect. This effect, however, was hindered by a second cycle of cell proliferation during the two-day cell growth period (see silybin, E and I glucosides, and for I-nPr). […] Because of that, the challenge time was increased to 24 hours (Exp. 2 and 3).
In experiment 3, only 40% of the cells divided. The ratio of EC50 values for exp. 2 and exp. 3 varied between 3.6 and 12.7. This may indicate differential cytotoxicity of silybin and cucurbitacin analogs over quiescent and active stellate cells. In other words, compounds show higher anti-proliferative activity on active cells than on quiescent cells.

Chain of hyaluronidase (Q2YDK3 entry or part of it): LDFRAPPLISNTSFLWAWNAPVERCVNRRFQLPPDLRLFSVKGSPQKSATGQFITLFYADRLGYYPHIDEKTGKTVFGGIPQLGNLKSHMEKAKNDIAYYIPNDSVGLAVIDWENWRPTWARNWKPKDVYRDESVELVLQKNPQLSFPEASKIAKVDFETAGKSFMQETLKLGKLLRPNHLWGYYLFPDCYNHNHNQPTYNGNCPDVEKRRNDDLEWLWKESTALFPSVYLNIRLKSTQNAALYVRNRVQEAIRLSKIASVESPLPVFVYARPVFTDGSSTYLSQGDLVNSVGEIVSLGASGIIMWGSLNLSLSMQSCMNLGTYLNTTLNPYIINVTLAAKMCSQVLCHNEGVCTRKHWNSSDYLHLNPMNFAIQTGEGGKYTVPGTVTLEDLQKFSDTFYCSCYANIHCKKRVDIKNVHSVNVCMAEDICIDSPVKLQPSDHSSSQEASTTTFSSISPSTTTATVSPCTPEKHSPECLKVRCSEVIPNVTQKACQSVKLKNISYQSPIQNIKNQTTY

With cucurbitacin E, the “inhibition of lipid peroxidation” value in test [1] is on record as “no inhibition”. The EC50 in the test on HSC-T6 cells [2] was determined as 40 nM. In addition, the “protective and preventive activity” value in test [3] was “significantly reducing serum enzymes level, steatosis, inflammation, and experimental cholestasis”.
On to `CC(=O)OC(C)(C)/C=C/C(=O)[C@](C)(O)[C@H]1[C@H](O)C[C@@]2(C)[C@@H]3CC=C4[C@H](C[C@H](O)C(=O)C4(C)C)[C@]3(C)C(=O)C[C@]12C` [B, cucurbitacin B], for which the “inhibition of lipid peroxidation” value in test [1] is “no inhibition”. The EC50 in the test on HSC-T6 cells [2] was determined as 20 nM. Besides, the ABTS activity result in test [4] is “No activity was observed”. In addition, the “protective and preventive activity” value in test [3] was “significantly reducing serum enzymes level, steatosis, inflammation, and experimental cholestasis”. In addition, in test [5], the DPPH activity result is “did not indicate any activity”. For the same compound, the anti-hyaluronidase activity result at hyaluronidase is “no activity; also recorded: did not demonstrate anti-hyaluronidase activity”.
With Cucurbitacin E-Me ether, the “inhibition of lipid peroxidation” value in test [1] is listed as “no inhibition”. The EC50 in the test with HSC-T6 cells [2] was 80 nM.
On to `CC(=O)OC(C)(C)/C=C/C(=O)[C@](C)(O)[C@H]1[C@H](O)C[C@@]2(C)[C@@H]3CC=C4[C@@H](C=C(O[C@@H]5O[C@H](CO)[C@@H](O)[C@H](O)[C@H]5O)C(=O)C4(C)C)[C@]3(C)C(=O)C[C@]12C` [E-Gluc, cucurbitacin E glucoside], for which the results for the EC50 in the test with HSC-T6 cells [2] and with HSC-T6 cells [6] were 3280 nM and 20000 nM, respectively.
